The target of one assay is cGAS (Homo sapiens, UniProt Q8N884). In words: cell-based.
For assay [1], the system named is TREX1 KO THP-1 ISG Luc cells. The assay can be described thus: cells. It counts as cell-based. The note with it: Homo sapiens, 48 h, read-out: ISRE-Luc IC50.
Another assay relates to THP-1 ISG Luc cells. In words: cells. It counts as cell-based. As to conditions: Homo sapiens, THP-1, 48 h, read-out: CTG IC50.
For assay [2], the system named is TREX1 KO THP-1 ISG Luc cells. The assay can be described thus: cells. It counts as cell-based. As to conditions: Homo sapiens, cell viability, 48 h, read-out: CTG IC50.

One molecule from patent publication US20240342185A1, “SMALL MOLECULES INHIBITORS OF CYCLIC GMP-AMP SYNTHASE (cGAS)” (priority 2021, published 2024) can be followed below.

Where two headings read alike, the source gives them in different places. Bounds are passed on as bounds.

As a reminder, the IC50 is the concentration needed to halve the response being measured.

Sequence of cGAS (Q8N884 whole entry): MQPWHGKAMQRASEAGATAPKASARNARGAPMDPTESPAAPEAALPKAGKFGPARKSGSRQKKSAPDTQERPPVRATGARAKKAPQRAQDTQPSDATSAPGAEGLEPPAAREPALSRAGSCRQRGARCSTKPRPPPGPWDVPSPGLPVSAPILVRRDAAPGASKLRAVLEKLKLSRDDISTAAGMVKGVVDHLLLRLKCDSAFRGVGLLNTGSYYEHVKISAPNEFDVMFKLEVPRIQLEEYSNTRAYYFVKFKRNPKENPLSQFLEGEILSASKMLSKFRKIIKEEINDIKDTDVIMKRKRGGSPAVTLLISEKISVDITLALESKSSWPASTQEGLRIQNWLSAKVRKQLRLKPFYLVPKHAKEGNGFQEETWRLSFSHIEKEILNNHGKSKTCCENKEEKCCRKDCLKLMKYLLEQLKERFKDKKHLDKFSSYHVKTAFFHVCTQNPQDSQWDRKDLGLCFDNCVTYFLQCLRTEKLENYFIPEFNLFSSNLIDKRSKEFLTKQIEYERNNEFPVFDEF

`Nc1cc(C2CCN(C(=O)c3cc4ccccc4[nH]3)CC2)no1` [Compound 2, (4-(5-aminoisoxazol-3-yl)piperidin-1-yl)(1H-indol-2-yl)methanone]: the IC50 is 890 nM against cGAS, 950 nM in assay [1], more than 10000 nM in the assay on THP-1 ISG Luc cells and more than 10000 nM in assay [2].
